Key:
NCI-H1304 = assay: cells; type: functional, cell-based; settings: Homo sapiens;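 further: growth inhibition of the cancer cell line, measured in a cell viability assay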
Description: SANGER: Inhibition of human NCI-H1304 cell growth in a cell viability assay.

NOMO-1 = assay: cells; type: functional, cell-based; settings: Homo sapiens;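 further: growth inhibition of human NOMO-1 cells measured by a cell viability assay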
Description: SANGER: Inhibition of human NOMO-1 cell growth in a cell viability assay.

KNS-81-FD = assay: cells; type: functional, cell-based, Homo sapiens; settings: Homo sapiens, KNS-81-FD;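 further: growth inhibition of KNS-81-FD cells, read out with a cell viability assay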
Description: SANGER: Inhibition of human KNS-81-FD cell growth in a cell viability assay.

SR = assay: cells; type: functional, cell-based; settings: Homo sapiens
Description: SANGER: Inhibition of human SR cell growth in a cell viability assay.

IST-SL2 = assay: cells; type: functional, cell-based; settings: Homo sapiens;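 further: growth inhibition of human IST-SL2 cells, read out by a cell viability assay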
Description: SANGER: Inhibition of human IST-SL2 cell growth in a cell viability assay.

CMK = assay: cells; type: functional, cell-based; settings: Homo sapiens;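 further: growth inhibition of CMK cells, read out as cell viability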
Description: SANGER: Inhibition of human CMK cell growth in a cell viability assay.

CPC-N = assay: cells; type: functional, cell-based; settings: Homo sapiens;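 further: growth inhibition of CPC-N cells, with a cell viability assay as the readout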
Description: SANGER: Inhibition of human CPC-N cell growth in a cell viability assay.

BL-41 = assay: cells; type: functional, cell-based; settings: Homo sapiens;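 further: growth inhibition of human BL-41 cells, read out with a cell viability assay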
Description: SANGER: Inhibition of human BL-41 cell growth in a cell viability assay.

NCI-H889 = assay: cells; type: functional, cell-based; settings: Homo sapiens;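 further: cell growth inhibition of the cell line, read out with a viability assay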
Description: SANGER: Inhibition of human NCI-H889 cell growth in a cell viability assay.

ARH-77 = assay: cells; type: functional, cell-based; settings: Homo sapiens;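 further: growth inhibition of ARH-77 cells, read out by a cell viability assay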
Description: SANGER: Inhibition of human ARH-77 cell growth in a cell viability assay.

JIYOYE = assay: cells; type: functional, cell-based; settings: Homo sapiens
Description: SANGER: Inhibition of human JiyoyeP-2003 cell growth in a cell viability assay.

LAN-6 = assay: cells; type: functional, cell-based, Homo sapiens; settings: Homo sapiens, LAN-6;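 further: growth inhibition of LAN-6 cells, determined with a cell viability assay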
Description: SANGER: Inhibition of human LAN-6 cell growth in a cell viability assay.

COR-L279 = assay: SANGER: Inhibition of human COR-L279 cell growth in a cell viability assay.; type: functional, cell-based
NCI-H748 = assay: cells; type: functional, cell-based; settings: Homo sapiens;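 further: growth inhibition of NCI-H748 cells, measured by a cell viability assay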
Description: SANGER: Inhibition of human NCI-H748 cell growth in a cell viability assay.

NCI-H187 = assay: cells; type: functional, cell-based; settings: Homo sapiens;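 further: growth inhibition of NCI-H187 cells, read out as cell viability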
Description: SANGER: Inhibition of human NCI-H187 cell growth in a cell viability assay.

NCI-H2171 = assay: cells; type: functional, cell-based; settings: Homo sapiens;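 further: growth inhibition of human NCI-H2171 cells, read out by a cell viability assay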
Description: SANGER: Inhibition of human NCI-H2171 cell growth in a cell viability assay.

SCLC-21H = assay: cells; type: functional, cell-based; settings: Homo sapiens;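 further: growth inhibition of cultured human SCLC-21H cells, read out with a cell viability assay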
Description: SANGER: Inhibition of human SCLC-21H cell growth in a cell viability assay.

NCI-H1417 = assay: cells; type: functional, cell-based; settings: Homo sapiens;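 further: human NCI-H1417 cells, growth inhibition determined with a cell viability readout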
Description: SANGER: Inhibition of human NCI-H1417 cell growth in a cell viability assay.

RPMI 8402 = assay: SANGER: Inhibition of human RPMI-8402 cell growth in a cell viability assay.; type: functional, cell-based
TE-441-T = assay: cells; type: functional, cell-based; settings: Homo sapiens
Description: SANGER: Inhibition of human TE-441-T cell growth in a cell viability assay.

LU-165 = assay: cells; type: functional, cell-based; settings: Homo sapiens
Description: SANGER: Inhibition of human LU-165 cell growth in a cell viability assay.

MOLT-13 = assay: cells; type: functional, cell-based; settings: Homo sapiens;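 further: IC50 for suppression of MOLT-13 cell growth, read out with a cell viability assay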
Description: SANGER: Inhibition of human MOLT-13 cell growth in a cell viability assay.

NCI-H82 = assay: cells; type: functional, cell-based; settings: Homo sapiens;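 further: growth inhibition of NCI-H82 cells, measured with a cell viability readout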
Description: SANGER: Inhibition of human NCI-H82 cell growth in a cell viability assay.

NCI-H1092 = assay: cells; type: functional, cell-based; settings: Homo sapiens
Description: SANGER: Inhibition of human NCI-H1092 cell growth in a cell viability assay.

NCI-H345 = assay: cells; type: functional, cell-based; settings: Homo sapiens;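 further: growth inhibition of NCI-H345 cells measured with a cell viability assay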
Description: SANGER: Inhibition of human NCI-H345 cell growth in a cell viability assay.

CAL-148 = assay: cells; type: functional, cell-based; settings: Homo sapiens
Description: SANGER: Inhibition of human CAL-148 cell growth in a cell viability assay.

NALM-6 = assay: cells; type: functional, cell-based; settings: Homo sapiens;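 further: growth inhibition of NALM-6 cells, read out with a cell viability assay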
Description: SANGER: Inhibition of human NALM-6 cell growth in a cell viability assay.

LAMA-84 = assay: cells; type: functional, cell-based; settings: Homo sapiens;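 further: growth inhibition of LAMA-84 cells, read out with a cell viability assay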
Description: SANGER: Inhibition of human LAMA-84 cell growth in a cell viability assay.

RPMI-6666 = assay: cells; type: functional, cell-based; settings: Homo sapiens
Description: SANGER: Inhibition of human RPMI-6666 cell growth in a cell viability assay.

NB7 = assay: cells; type: functional, cell-based; settings: Homo sapiens;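 further: growth inhibition of NB7 cells, read out with a cell viability assay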
Description: SANGER: Inhibition of human NB7 cell growth in a cell viability assay.

NCI-H2141 = assay: cells; type: functional, cell-based; settings: Homo sapiens;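 further: growth inhibition of human NCI-H2141 cells, read out with a cell viability assay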
Description: SANGER: Inhibition of human NCI-H2141 cell growth in a cell viability assay.

LB996-RCC = assay: cells; type: functional, cell-based; settings: Homo sapiens
Description: SANGER: Inhibition of human LB996-RCC cell growth in a cell viability assay.

NCI-H716 = assay: cells; type: functional, cell-based; settings: Homo sapiens;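 further: growth inhibition of human NCI-H716 cells, measured by a cell viability assay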
Description: SANGER: Inhibition of human NCI-H716 cell growth in a cell viability assay.

SNU-16 = assay: cells; type: functional, cell-based; settings: Homo sapiens;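 further: growth inhibition of human SNU-16 cells, determined with a cell viability readout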
Description: SANGER: Inhibition of human NCI-SNU-16 cell growth in a cell viability assay.

SW872 = assay: cells; type: functional, cell-based, Homo sapiens; settings: Homo sapiens, SW872;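 further: growth inhibition of SW872 cells, read out by a viability assay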
Description: SANGER: Inhibition of human SW872 cell growth in a cell viability assay.

NCI-H1648 = assay: cells; type: functional, cell-based, Homo sapiens; settings: Homo sapiens, NCI-H1648;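 further: cell viability assay measuring inhibition of NCI-H1648 cell growth, from the Sanger screening data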
Description: SANGER: Inhibition of human NCI-H1648 cell growth in a cell viability assay.

SNU-C1 = assay: cells; type: functional, cell-based; settings: Homo sapiens;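 further: growth inhibition of SNU-C1 human cells, read out by a cell viability assay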
Description: SANGER: Inhibition of human SNU-C1 cell growth in a cell viability assay.

L-540 = assay: cells; type: functional, cell-based; settings: Homo sapiens;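 further: growth inhibition of the human L-540 cell line, read out with a viability assay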
Description: SANGER: Inhibition of human L-540 cell growth in a cell viability assay.

NCCIT = assay: SANGER: Inhibition of human NCCIT cell growth in a cell viability assay.; type: functional, cell-based
NCI-H524 = assay: cells; type: functional, cell-based; settings: Homo sapiens;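 further: growth inhibition of human NCI-H524 cells, read out through a cell viability assay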
Description: SANGER: Inhibition of human NCI-H524 cell growth in a cell viability assay.

NCI-H1436 = assay: cells; type: functional, cell-based; settings: Homo sapiens;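 further: growth suppression of human NCI-H1436 cells, determined with a cell viability readout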
Description: SANGER: Inhibition of human NCI-H1436 cell growth in a cell viability assay.

CCc1nc(N)nc(N)c1-c1ccc(Cl)cc1 [PYRIMETHAMINE]
IC50 (NCI-H1304): > 20 µM
IC50 (NOMO-1): > 20 µM
IC50 (KNS-81-FD): > 20 µM
IC50 (SR): 16.5 µM
IC50 (IST-SL2): 11.4 µM
IC50 (CMK): 2.46 µM
IC50 (CPC-N): > 20 µM
IC50 (BL-41): > 20 µM
IC50 (NCI-H889): > 20 µM
IC50 (ARH-77): 19.5 µM
IC50 (JIYOYE): 10.9 µM
IC50 (LAN-6): > 20 µM
IC50 (COR-L279): 6.37 µM
IC50 (NCI-H748): > 20 µM
IC50 (NCI-H187): > 20 µM
IC50 (NCI-H2171): > 20 µM
IC50 (SCLC-21H): > 20 µM
IC50 (NCI-H1417): > 20 µM
IC50 (RPMI 8402): 8.12 µM
IC50 (TE-441-T): > 20 µM
IC50 (LU-165): > 20 µM
IC50 (MOLT-13): > 20 µM
IC50 (NCI-H82): 9.11 µM
IC50 (NCI-H1092): > 20 µM
IC50 (NCI-H345): > 20 µM
IC50 (CAL-148): > 20 µM
IC50 (NALM-6): 19.8 µM
IC50 (LAMA-84): 2.66 µM
IC50 (RPMI-6666): 14.6 µM
IC50 (NB7): > 20 µM
IC50 (NCI-H2141): > 20 µM
IC50 (LB996-RCC): > 20 µM
IC50 (NCI-H716): > 20 µM
IC50 (SNU-16): > 20 µM
IC50 (SW872): > 20 µM
IC50 (NCI-H1648): > 20 µM
IC50 (SNU-C1): > 20 µM
IC50 (L-540): 10.5 µM
IC50 (NCCIT): 6.93 µM
IC50 (NCI-H524): > 20 µM
IC50 (NCI-H1436): > 20 µM

O=C(/C=C/c1ccccc1)NC(NC(=S)Nc1cccc2cccnc12)C(Cl)(Cl)Cl (configuration not stated) [SALUBRINAL]
IC50 (NCI-H1304): > 16 µM
IC50 (NOMO-1): > 16 µM
IC50 (KNS-81-FD): > 16 µM
IC50 (SR): > 16 µM
IC50 (IST-SL2): 11.8 µM
IC50 (CMK): 13.7 µM
IC50 (CPC-N): > 16 µM
IC50 (BL-41): 9.78 µM
IC50 (NCI-H889): > 16 µM
IC50 (ARH-77): > 16 µM
IC50 (JIYOYE): > 16 µM
IC50 (LAN-6): > 16 µM
IC50 (COR-L279): > 16 µM
IC50 (NCI-H748): > 16 µM
IC50 (NCI-H187): > 16 µM
IC50 (NCI-H2171): > 16 µM
IC50 (SCLC-21H): > 16 µM
IC50 (NCI-H1417): > 16 µM
IC50 (RPMI 8402): > 16 µM
IC50 (TE-441-T): > 16 µM
IC50 (LU-165): > 16 µM
IC50 (MOLT-13): > 16 µM
IC50 (NCI-H82): > 16 µM
IC50 (NCI-H1092): > 16 µM
IC50 (NCI-H345): > 16 µM
IC50 (CAL-148): > 16 µM
IC50 (NALM-6): 13.1 µM
IC50 (LAMA-84): 15.7 µM
IC50 (RPMI-6666): > 16 µM
IC50 (NB7): > 16 µM
IC50 (NCI-H2141): > 16 µM
IC50 (LB996-RCC): > 16 µM
IC50 (NCI-H716): > 16 µM
IC50 (SNU-16): > 16 µM
IC50 (SW872): > 16 µM
IC50 (NCI-H1648): > 16 µM
IC50 (SNU-C1): > 16 µM
IC50 (L-540): 16 µM
IC50 (NCCIT): 11.6 µM
IC50 (NCI-H524): > 16 µM
IC50 (NCI-H1436): > 16 µM

— ChEMBL document CHEMBL1201861, “Genomics of Drug Sensitity in Cancer screening data, Wellcome Trust Sanger Institute”
